How the values were obtained:
[1] = molecular target: LasB (Pseudomonas aeruginosa, UniProt P14756); settings: 1, 5, 7.5, 10 µM probe, 1 mM CaCl2, 60.6 nM (2 µg/mL) LasB, 10 mM HEPES pH 8.0, 37 °C, time-gated emission every 15 min for 10 h, fit to hit-and-run model (Dynafit)
[2] = system: supernatant from P. aeruginosa strain producing LasB; type: biochemical, Pseudomonas aeruginosa; settings: P1[Tb]: 0.5 mM probe, 50 mM CaCl2, HEPES buffer, 9 µL supernatant, RT, 1 h before injection
[3] = Luminescence of probe in the presence of H2O2; type: physicochemical; settings: 5 µM probe, 0.5 mM H2O2, HEPES buffer pH 8, 37 °C, time-gated emission
[4] = Luminescence of probe in the presence of glutathione; type: physicochemical; settings: 5 µM probe, 100 µM GSH, HEPES buffer pH 8, 37 °C, time-gated emission
[5] = system: supernatant from the P. aeruginosa strain producing LasB; experiment: Luminescence of probe with LasB-secreting P. aeruginosa supernatant with and without EDTA; type: biochemical, Pseudomonas aeruginosa
[6] = system: E. coli supernatant; settings: 10 µM probe, 1 mM CaCl2, HEPES buffer, 10 µL E. coli supernatant, 20 h at 37 °C, time-gated emission
[7] = Luminescence of probe in the presence of pyocyanin and P. aeruginosa supernatant; type: physicochemical

Sequence of LasB (P14756 198-498): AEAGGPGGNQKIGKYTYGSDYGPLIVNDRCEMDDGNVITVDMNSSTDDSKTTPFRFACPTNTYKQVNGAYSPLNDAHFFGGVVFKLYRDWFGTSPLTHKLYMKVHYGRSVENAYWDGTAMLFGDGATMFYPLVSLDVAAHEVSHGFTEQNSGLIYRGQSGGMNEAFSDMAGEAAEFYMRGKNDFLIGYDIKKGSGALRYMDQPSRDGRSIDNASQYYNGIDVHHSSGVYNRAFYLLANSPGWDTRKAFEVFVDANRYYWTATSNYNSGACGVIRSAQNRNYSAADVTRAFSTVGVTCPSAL

EGLAEW [P1[Tb], green-emitting metallopeptide: DO3A-Tb(III) complex at N-terminus of EGLAEW, Trp as sensitizing unit]
apparent rate constant ksub (equivalent to specificity constant kcat/Km) [1]: 0.438 ± 0.007 μM^–1min^–1
cleavage of probe by wild-type P. aeruginosa supernatant (HPLC-MS) [2]: cleaved at the G-L bond
change of luminescence 20 h after addition of H2O2 [3]: remained constant
change of luminescence 20 h after addition of glutathione [4]: remained constant
reduction of luminescence 3 h after supernatant addition, in the absence of EDTA [5]: approximately 90%
reduction of luminescence 3 h after supernatant addition, with EDTA [5]: approximately 30%
luminescence response to P. aeruginosa supernatant added after incubation in 1.2% FBS: gradual reduction in the luminescence emission
time of stable luminescence in 1.2% FBS (10 µM probe, 1.2% v/v fetal bovine serum in HEPES buffer, 37 °C, time-gated emission every hour for 12 h): at least 12 h
change of luminescence with E. coli supernatant [6]: no changes in the luminescence
probe activity toward P. aeruginosa supernatant in the presence of pyocyanin [7]: remained active
reduction of emission band intensity on incubation with pyocyanin ([7]; 5 µM probe, 1 µM pyocyanin, HEPES buffer, 37 °C, time-gated emission): approximately 20%
